This test concerns the target UbiX (Pseudomonas aeruginosa, UniProt Q9HX08). The experiment in a line: crystal structure. It is filed as binding. To be noted: complex with DMAP.

Sequence of UbiX (Q9HX08 whole entry): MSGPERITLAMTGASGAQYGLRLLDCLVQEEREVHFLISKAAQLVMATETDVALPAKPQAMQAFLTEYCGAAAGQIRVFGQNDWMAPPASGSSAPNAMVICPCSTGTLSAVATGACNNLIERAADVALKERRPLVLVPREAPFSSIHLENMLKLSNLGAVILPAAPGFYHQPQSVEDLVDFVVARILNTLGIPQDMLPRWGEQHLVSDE

Take `Cc1cc2nc3c(=O)[nH]c(=O)nc-3n(C[C@H](O)[C@H](O)[C@H](O)COP(=O)(O)O)c2cc1C` [FMN]: the crystal structure result was “crystal structure of P. aeruginosa UbiX in complex with oxidized FMN and DMAP”.

(Values after paper PMC4988493 (Nature, 2015).)
